Measurements published in patent publication US4946852A, “4(R)-substituted 6(S)-phenoxymethyl-, 6(S)-β-phenylethyl- and 6(S)-β-styryl-tetrahydropyran-2-ones, a highly stereoselective process for their preparation, pharmaceutical products based on these compounds, and their use” (Hoechst Aktiengesellschaft, priority 1986, dated 1990).

Target: T1, HMG-CoA reductase (Rattus norvegicus, UniProt P51639)
T1 sequence (P51639 1-887): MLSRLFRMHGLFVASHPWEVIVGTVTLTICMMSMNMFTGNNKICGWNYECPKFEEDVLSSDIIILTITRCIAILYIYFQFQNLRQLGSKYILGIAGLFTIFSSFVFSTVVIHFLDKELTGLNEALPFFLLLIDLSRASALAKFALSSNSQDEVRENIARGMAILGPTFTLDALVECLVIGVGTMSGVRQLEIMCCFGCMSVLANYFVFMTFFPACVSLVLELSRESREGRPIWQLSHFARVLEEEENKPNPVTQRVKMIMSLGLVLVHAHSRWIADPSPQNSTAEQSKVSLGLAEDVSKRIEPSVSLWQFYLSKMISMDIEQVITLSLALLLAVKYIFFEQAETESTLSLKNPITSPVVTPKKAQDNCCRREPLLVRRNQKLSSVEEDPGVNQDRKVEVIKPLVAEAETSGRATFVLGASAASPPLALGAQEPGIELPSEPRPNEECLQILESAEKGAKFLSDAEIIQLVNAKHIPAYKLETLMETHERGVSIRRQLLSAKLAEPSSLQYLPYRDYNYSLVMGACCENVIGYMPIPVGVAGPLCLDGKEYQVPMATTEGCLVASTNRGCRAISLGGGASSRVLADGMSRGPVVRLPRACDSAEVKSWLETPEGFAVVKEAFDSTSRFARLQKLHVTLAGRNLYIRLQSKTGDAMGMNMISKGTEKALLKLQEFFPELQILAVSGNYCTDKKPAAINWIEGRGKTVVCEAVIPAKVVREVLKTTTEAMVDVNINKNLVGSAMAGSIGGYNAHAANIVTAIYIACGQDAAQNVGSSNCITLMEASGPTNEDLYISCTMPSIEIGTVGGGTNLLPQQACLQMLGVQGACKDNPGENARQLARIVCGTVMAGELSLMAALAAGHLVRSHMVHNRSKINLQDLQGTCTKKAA
Assay: Inhibition of HMG-CoA reductase activity on solubilized enzyme preparations from rat liver microsomes
Format: biochemical
Conditions: solubilized rat-liver microsomal enzyme; for IC50: molar concentration required for 50% inhibition, (S,R) 14C-HMG-CoA substrate, mean of 3 parallel samples

| Compound | IC50 [nM] | inhibition (at 10^-6) [%] | inhibition (at 10^-7) [%] |
| --- | --- | --- | --- |
| Cc1cc(C)c(OC[C@@H]2C[C@@H](O)CC(=O)O2)c(CCCOc2ccc(F)cc2)c1 [A, 6(S)-{4,6-dimethyl-2-[3-(4-fluorophenoxy)propyl]phenoxymethyl}-3,4,5,6-tetrahydro-4(R)-hydroxy-2H-pyran-2-one, reference compound] | 1000 |  |  |
| Cc1cc(C)c(OC[C@@H]2C[C@@H](SCc3ccccc3)CC(=O)O2)c(CCCOc2ccc(F)cc2)c1 [Vc, 6S-({[2-(4-Fluorophenoxy-3-propyl)]-4,6-dimethylphenoxy}methyl)-4R-benzylmercapto-3,4,5,6-tetrahydro-2H-pyran-2-one] | ~100000 |  |  |
| Cc1cc(C)c(OC[C@@H]2C[C@@H](SCCO)CC(=O)O2)c(CCCOc2ccc(F)cc2)c1 [Vd, 6S-({[2-(4-Fluorophenoxy-3-propyl)]-4,6-dimethylphenoxy}methyl)-4R-β-hydroxyethylmercapto-3,4,5,6-tetrahydro-2H-pyran-2-one] | 1000 |  |  |
| Cc1cc(C)c(OC[C@@H]2C[C@@H](SC[C@H](N)C(=O)O)CC(=O)O2)c(CCCOc2ccc(F)cc2)c1 [Ve, 6S-({[2-(4-Fluorophenoxy-3-propyl)]-4,6-dimethylphenoxy}methyl)-4R-[(R)-2-amino-3-mercaptyl-propionic acid]-3,4,5,6-tetrahydro-2H-pyran-2-one] |  | 37 | 24 |

Second part, the molecule after the results:

| IC50 [nM] | inhibition (at 10^-6) [%] | inhibition (at 10^-7) [%] | Compound |
| --- | --- | --- | --- |
| 300 |  |  | CC(=O)S[C@H]1CC(=O)O[C@H](COc2c(C)cc(C)cc2CCCOc2ccc(F)cc2)C1 [Va, 6S-({[2-(4-Fluorophenoxy-3-propyl)]-4,6-dimethylphenoxy}methyl)-4R-acetylmercapto-3,4,5,6-tetrahydro-2H-pyran-2-one] |
| 200 |  |  | Cc1cc(C)c(OC[C@@H](O)C[C@@H](O)CC(=O)O)c(CCCOc2ccc(F)cc2)c1 [reference compound] |
